Measured values: patent US10590106B2, “Certain chemical entities, compositions, and methods” (NeuPharma, Inc., priority 2012, dated 2020)
Read-outs that look alike come from different tables or passages of the source.

Assays:
BRAF = BRAF (Homo sapiens (Human), UniProt P15056); assay: Inhibitory activity against kinase BRAF, Z'-LYTE method (Invitrogen); assay type: biochemical; details: 1 μM compound
Procedure: Inhibitory activities Inhibitory activities of compounds against BRAF, and BRAF V600E were measured by Invitrogen using Z′-LYTE® Method as briefly described in the following. 4× Test compounds are dissolved in 1% DMSO. […] ATP solutions are diluted to a 4×ATP working concentration in Kinase Buffer (50 mM HEPES pH 7.5, 0.01% BRIJ-35, 10 mM MgCl2, 1 mM EGTA). Reaction started by 30-second shaking of mixture consisting of 2.5 μL 4× test compound, […] and 2.5 μL 4×ATP Solution on Bar-coded Corning, low volume NBS, black 384-well plate (Corning Cat. #3676). Then the mixture was incubated for 60-minute at room temperature for the kinase reaction, followed by addition of 5 μL of a 1:1024 dilution of development reagent A and 30-second plate shake. The mixture was then incubated for another 60-minute at room temperature for development reaction. Fluorescence was read by plate reader. IC50 was calculated by plotting the concentration of compound vs the percentage of inhibition in treated wells using GraphPad Prism 5.
Table 2 and 3 show % inhibition at 1 μM of several compounds of the invention against BRAF and BRAF V600E, respectively, using Z′-LYTE® method.

BRAF V600E = BRAF V600E (Homo sapiens (Human), UniProt P15056, V600E); assay: Inhibitory activity against kinase BRAF V600E, Z'-LYTE method (Invitrogen); assay type: biochemical; details: for inhibition at 1 µM: read-out: Inhibition (% inhibition at 1 μM) against BRAF V600E
Sequence of BRAF V600E (P15056 whole entry V600E): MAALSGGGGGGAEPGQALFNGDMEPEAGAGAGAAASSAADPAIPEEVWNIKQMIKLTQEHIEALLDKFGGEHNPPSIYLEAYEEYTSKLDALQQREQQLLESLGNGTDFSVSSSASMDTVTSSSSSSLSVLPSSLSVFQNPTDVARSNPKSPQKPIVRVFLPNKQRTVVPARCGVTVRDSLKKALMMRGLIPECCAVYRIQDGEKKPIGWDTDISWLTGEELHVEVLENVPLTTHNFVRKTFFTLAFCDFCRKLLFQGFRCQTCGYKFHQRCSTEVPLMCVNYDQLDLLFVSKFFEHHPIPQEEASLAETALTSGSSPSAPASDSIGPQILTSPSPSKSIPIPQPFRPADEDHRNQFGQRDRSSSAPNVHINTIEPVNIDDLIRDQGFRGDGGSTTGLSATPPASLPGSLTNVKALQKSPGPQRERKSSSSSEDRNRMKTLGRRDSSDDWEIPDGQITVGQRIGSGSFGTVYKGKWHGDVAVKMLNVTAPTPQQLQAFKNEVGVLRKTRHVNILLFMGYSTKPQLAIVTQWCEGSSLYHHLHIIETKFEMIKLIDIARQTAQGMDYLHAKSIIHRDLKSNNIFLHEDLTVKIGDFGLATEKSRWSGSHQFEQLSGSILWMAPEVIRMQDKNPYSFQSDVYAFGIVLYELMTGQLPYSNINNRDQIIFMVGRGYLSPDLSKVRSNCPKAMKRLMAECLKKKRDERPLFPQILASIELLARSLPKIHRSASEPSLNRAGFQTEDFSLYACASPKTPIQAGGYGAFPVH
How it was run: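 FRET-based Z′-LYTE peptide-phosphorylation assay in 50 mM HEPES pH 7.5, 0.01% BRIJ-35, 10 mM MgCl2, 1 mM EGTA; kinase reaction 60 min at room temperature, then 60 min development before fluorescence read. IC50 from concentration vs % inhibition; single-point % inhibition tested at 1 μM.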

KDR (VEGFR2) = KDR (VEGFR2) (Homo sapiens (Human), UniProt P35968); assay: Inhibitory activity against kinase KDR, Z'-LYTE method (Invitrogen); assay type: biochemical; details: for inhibition at 1 µM: read-out: Inhibition (% inhibition at 1 μM) against KDR
Sequence of KDR (VEGFR2) (P35968 20-1356): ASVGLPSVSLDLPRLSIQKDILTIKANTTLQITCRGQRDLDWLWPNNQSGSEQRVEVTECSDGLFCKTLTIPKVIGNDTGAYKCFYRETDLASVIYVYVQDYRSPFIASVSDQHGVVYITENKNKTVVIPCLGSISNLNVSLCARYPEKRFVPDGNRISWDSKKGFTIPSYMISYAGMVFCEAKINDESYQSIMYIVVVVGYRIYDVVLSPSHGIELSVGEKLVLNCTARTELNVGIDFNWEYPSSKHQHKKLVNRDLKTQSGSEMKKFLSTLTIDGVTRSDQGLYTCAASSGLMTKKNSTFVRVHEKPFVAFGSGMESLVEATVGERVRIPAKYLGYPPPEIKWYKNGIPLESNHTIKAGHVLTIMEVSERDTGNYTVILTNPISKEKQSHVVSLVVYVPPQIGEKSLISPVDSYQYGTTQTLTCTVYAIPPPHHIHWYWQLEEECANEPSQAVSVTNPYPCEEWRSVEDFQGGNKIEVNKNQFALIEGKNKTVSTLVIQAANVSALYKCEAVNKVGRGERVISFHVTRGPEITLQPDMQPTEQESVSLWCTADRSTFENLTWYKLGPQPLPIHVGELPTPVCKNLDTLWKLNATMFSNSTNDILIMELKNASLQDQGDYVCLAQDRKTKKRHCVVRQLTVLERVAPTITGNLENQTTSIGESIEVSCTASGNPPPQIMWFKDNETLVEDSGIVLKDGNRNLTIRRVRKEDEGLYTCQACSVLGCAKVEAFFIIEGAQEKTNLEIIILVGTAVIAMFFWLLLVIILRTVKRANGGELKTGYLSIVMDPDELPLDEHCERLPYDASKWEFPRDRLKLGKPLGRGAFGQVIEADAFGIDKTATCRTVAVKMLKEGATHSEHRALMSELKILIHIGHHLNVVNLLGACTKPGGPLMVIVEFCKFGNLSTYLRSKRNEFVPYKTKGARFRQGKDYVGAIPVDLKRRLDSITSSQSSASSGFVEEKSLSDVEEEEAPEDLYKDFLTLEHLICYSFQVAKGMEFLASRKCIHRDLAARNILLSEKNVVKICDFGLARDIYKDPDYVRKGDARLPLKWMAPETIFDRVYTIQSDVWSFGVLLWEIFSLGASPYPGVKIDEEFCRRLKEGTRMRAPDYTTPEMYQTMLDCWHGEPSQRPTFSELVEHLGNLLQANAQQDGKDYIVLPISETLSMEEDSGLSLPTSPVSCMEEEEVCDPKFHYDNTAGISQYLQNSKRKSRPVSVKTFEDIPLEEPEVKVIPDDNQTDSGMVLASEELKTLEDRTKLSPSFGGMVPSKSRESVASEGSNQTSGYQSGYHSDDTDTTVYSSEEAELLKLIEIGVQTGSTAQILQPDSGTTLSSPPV
How it was run: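 Human KDR (VEGFR2) kinase inhibition was measured with Invitrogen's Z′-LYTE® method. A 2× mixture of KDR and Tyr 01 peptide is made in 50 mM HEPES pH 7.5, 0.01% BRIJ-35, 10 mM MgCl2, 1 mM EGTA. Each 10 μL reaction holds 0.5-11.7 ng enzyme and 2 μM Tyr 01. It incubates for 1 hour, then 5 μL of Development Reagent B diluted 1:256 is added.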

A375 cells = assay: Inhibition of cancer cell growth, MTT or MTS assay, A375; assay type: cell-based; details: Homo sapiens, A-375; 72 h incubation
How it was run: (§1)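 Cells in RPMI 1640 with 10% FBS were seeded at ~2000 (A375) or 4000 (A549, Colo205) per well, grown 24 h, then exposed to compound 72 h at 1% final DMSO. Read-out by MTT (570 nm) or MTS (490 nm). IC50 from concentration vs percent inhibition, triplicates.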

A549 cells = assay: Inhibition of cancer cell growth, MTT or MTS assay, A549; assay type: cell-based; details: Homo sapiens, 72 h incubation
How it was run: as §1

Sequence of BRAF (P15056 whole entry): as the sequence (P15056 whole entry V600E) above, with E600V counted along it

SMILES | inhibition at 1 µM (BRAF) | inhibition at 1 µM (BRAF V600E; 1 μM compound) | inhibition at 1 µM (KDR (VEGFR2); 1 μM compound) | IC50 (A375 cells) | IC50 (A549 cells) | IC50 (BRAF V600E) | IC50 (KDR (VEGFR2)) | inhibition at 1 µM (BRAF V600E) | inhibition at 1 µM (KDR (VEGFR2))
O=C(Nc1ccc(F)cc1)Nc1ccc(Oc2ccc3ncc(N4CCNCC4)nc3c2)cc1 [Compound C090, 1-(4-fluorophenyl)-3-(4-((3-(piperazin-1-yl)quinoxalin-6-yl)oxy)phenyl)urea] | 70 to 89% | > 89% | > 89% | 1 to 5 µM | < 2 µM | – | – | – | –
O=C(Nc1cccc(Cl)c1)Nc1ccc(Oc2ccc3nccnc3c2)cc1F [Compound C093, 1-(3-chlorophenyl)-3-(2-fluoro-4-(quinoxalin-6-yloxy)phenyl)urea] | 70 to 89% | > 89% | 70 to 89% | > 5 µM | > 5 µM | – | – | – | –
O=C(Nc1ccc(F)c(Oc2ccc3ncc(N4CCNCC4)nc3c2)c1)Nc1ccc(Cl)c(C(F)(F)F)c1 [Compound C066, 1-(4-chloro-3-(trifluoromethyl)phenyl)-3-(4-fluoro-3-((3-(piperazin-1-yl)quinoxalin-6-yl)oxy)phenyl)urea] | < 70% | > 89% | > 89% | 1 to 5 µM | < 2 µM | – | – | – | –
O=C(Nc1cccc(F)c1)Nc1ccc(F)c(Oc2ccc3ncc(N4CCOCC4)nc3c2)c1 [Compound C034, 1-(4-fluoro-3-((3-morpholinoquinoxalin-6-yl)oxy)phenyl)-3-(3-fluorophenyl)urea] | < 70% | > 89% | < 70% | < 1 µM | > 5 µM | – | – | – | –
O=C(Nc1cccc(Cl)c1)Nc1cccc(Oc2ccc3ncc(N4CCOCC4)nc3c2)c1 [Compound C047, 1-(3-chlorophenyl)-3-(3-((3-morpholinoquinoxalin-6-yl)oxy)phenyl)urea] | 70 to 89% | > 89% | 70 to 89% | 1 to 5 µM | > 5 µM | – | – | – | –
O=C(Nc1ccc(Cl)cc1)Nc1ccc(Oc2ccc3ncc(N4CCNCC4)nc3c2)cc1 [Compound C092, 1-(4-chlorophenyl)-3-(4-((3-(piperazin-1-yl)quinoxalin-6-yl)oxy)phenyl)urea] | > 89% | > 89% | 70 to 89% | > 5 µM | 2 to 5 µM | – | – | – | –
O=C(Nc1cccc(Oc2ccc3nccnc3c2)c1)Nc1cccc(C(F)(F)F)c1 [Compound C003, 1-(3-(quinoxalin-6-yloxy)phenyl)-3-(3-(trifluoromethyl)phenyl)urea] | < 70% | > 89% | > 89% | > 5 µM | 2 to 5 µM | > 0.1 µM | < 0.1 µM | – | –
O=C(Nc1ccc(Oc2ccc3nccnc3c2)cc1)Nc1cccc(C(F)(F)F)c1 [Compound C075, 1-(4-(quinoxalin-6-yloxy)phenyl)-3-(3-(trifluoromethyl)phenyl)urea] | < 70% | > 89% | 70 to 89% | 1 to 5 µM | 2 to 5 µM | > 0.1 µM | > 0.1 µM | – | –
O=C(Nc1ccc(Oc2ccc3ncc(N4CCNCC4)nc3c2)cc1)Nc1cccc(Cl)c1 [Compound C091, 1-(3-chlorophenyl)-3-(4-((3-(piperazin-1-yl)quinoxalin-6-yl)oxy)phenyl)urea] | > 89% | > 89% | > 89% | 1 to 5 µM | 2 to 5 µM | – | – | – | –
O=C(Nc1ccc(Oc2ccc3ncc(N4CCNCC4)nc3c2)cc1)Nc1ccc(C(F)(F)F)cc1 [Compound C088, 1-(4-((3-(piperazin-1-yl)quinoxalin-6-yl)oxy)phenyl)-3-(4-(trifluoromethyl)phenyl)urea] | < 70% | > 89% | > 89% | 1 to 5 µM | 2 to 5 µM | – | – | – | –
O=C(Nc1cc(F)cc(F)c1)Nc1ccc(F)c(Oc2ccc3ncc(N4CCOCC4)nc3c2)c1 [Compound C054, 1-(3,5-difluorophenyl)-3-(4-fluoro-3-((3-morpholinoquinoxalin-6-yl)oxy)phenyl)urea] | < 70% | > 89% | < 70% | 1 to 5 µM | > 5 µM | – | – | – | –
N#Cc1ccc(NC(=O)Nc2cccc(Oc3ccc4nccnc4c3)c2)cc1 [Compound C070, 1-(4-cyanophenyl)-3-(3-(quinoxalin-6-yloxy)phenyl)urea] | > 89% | > 89% | > 89% | > 5 µM | > 5 µM | – | – | – | –
O=C(Nc1cccc(Oc2ccc3nccnc3c2)c1)c1cccc(C(F)(F)F)c1 [Compound C005, N-(3-(quinoxalin-6-yloxy)phenyl)-3-(trifluoromethyl)benzamide] | 70 to 89% | 70 to 89% | 70 to 89% | > 5 µM | > 5 µM | < 0.1 µM | > 0.1 µM | – | –
N#Cc1ccc(NC(=O)Nc2cccc(Oc3ccc4nccnc4c3)c2)cc1C(F)(F)F [Compound C073, 1-(4-cyano-3-(trifluoromethyl)phenyl)-3-(3-(quinoxalin-6-yloxy)phenyl)urea] | < 70% | – | – | > 5 µM | 2 to 5 µM | – | – | > 89% | 70 to 89%
O=C(Nc1cc(F)cc(Oc2ccc3ncc(N4CCOCC4)nc3c2)c1)c1cccc(C(F)(F)F)c1 [Compound C028, N-(3-fluoro-5-((3-morpholinoquinoxalin-6-yl)oxy)phenyl)-3-(trifluoromethyl)benzamide] | < 70% | > 89% | 70 to 89% | 1 to 5 µM | > 5 µM | – | – | – | –
O=C(Nc1cc(F)cc(Oc2ccc3nccnc3c2)c1)Nc1cccc(C(F)(F)F)c1 [Compound C021, 1-(3-fluoro-5-(quinoxalin-6-yloxy)phenyl)-3-(3-(trifluoromethyl)phenyl)urea] | < 70% | > 89% | 70 to 89% | 1 to 5 µM | < 2 µM | – | – | – | –
O=C(Nc1ccc(Cl)cc1)Nc1cccc(Oc2ccc3ncc(N4CCOCC4)nc3c2)c1 [Compound C048, 1-(4-chlorophenyl)-3-(3-((3-morpholinoquinoxalin-6-yl)oxy)phenyl)urea] | 70 to 89% | > 89% | 70 to 89% | 1 to 5 µM | 2 to 5 µM | – | – | – | –
